Experimental data from publication PMC11241437, “Structure-Based Analysis of Cefaclor Pharmacokinetic Diversity According to Human Peptide Transporter-1 Genetic Polymorphism” (International Journal of Molecular Sciences, 2024).

Key:
clinical = settings: male, human, in vivo, po, 250 mg
Description: Cefaclor bioequivalence results in 24 healthy Korean men obtained from a previous study were reused for the analysis of cefaclor pharmacokinetics according to PEPT1 genetic polymorphisms in this study. Among the previous bioequivalence results, those for the test formulation were excluded, and only the clinical results for the reference drug, cefaclor 250 mg capsule (Eli Lilly and Company, Indianapolis, IN, USA; Lot number: L1692Y1) were used. […] Table S2 presents the demographic information of the subjects, including physiological and biochemical parameters. The determination of clinical biochemical parameter values was performed by serological analysis through a dry automated analyzer. The analytical instrument was a microside VITROS (Ortho Clinical Diagnostics, Raritan, NJ, USA) operated by reflectance spectrophotometry. Information on the selection and progress of clinical trial participants is presented in Supplementary Information S1, and information on clinical trial design and sampling is presented in Supplementary Information S2. The clinical trial protocol was thoroughly reviewed and officially approved (approval number: 112; 09.03.2004) by the Institutional Review Board of the Institute of Bioequivalence and Bridging Study (Gwangju, Republic of Korea). Information on the high-performance liquid chromatography-ultraviolet (HPLC-UV) method used to quantify cefaclor in plasma samples is briefly presented in Supplementary Information S3.
Genetic polymorphism information for all subjects participating in the clinical trial could be obtained using blank plasma samples derived from each subject. The genetic information targeted in this study was SLC15A1 exons 5 and 16 as the PEPT1 coding gene. SNPs in SLC15A1 exons 5 and 16 were analyzed through pyrosequencing and restriction fragment length polymorphism (RFLP) via polymerase chain reaction (PCR), respectively. The target SNPs in SLC15A1 exons 5 and 16 were c.381G>A and c.1287G>C, respectively, and the genetic polymorphism analysis methods for these were presented in Supplementary Information S4.
The results of the analysis of plasma concentration over time after single oral administration of cefaclor 250 mg capsule could be calculated as cefaclor pharmacokinetic parameter values through non-compartmental analysis (NCA). NCA was performed using Phoenix WinNonlin software (version 8.4, Certara Inc., Princeton, NJ, USA). The main calculated pharmacokinetic parameters are area under the curve in a plasma concentration-time graph (AUC), clearance (CL/F), peak plasma drug concentration after administration (Cmax), elimination half-life (T1/2), mean residence time (MRT), time to reach Cmax (Tmax), and volume of the distribution (V/F). Specific calculation methods for pharmacokinetic parameters are presented in Supplementary Information S5. The calculated pharmacokinetic parameter values were classified according to the genetic polymorphisms of SLC15A1 exons 5 and 16 and compared between genotype groups. Comparison of significant differences between the three genotype groups (SLC15A1 exon 5) was performed using one-way analysis of variance (ANOVA), and comparison of significant differences between two genotype groups (SLC15A1 exon 16) was performed using a two-tailed t test. All significance judgments in statistical tests were based on a p value of 0.05. Additionally, differences in pharmacokinetics between groups were confirmed through a graphic comparison of cefaclor plasma concentration profiles between genotypes classified according to genetic polymorphisms of SLC15A1 exons 5 and 16.
Supplementary Information S2
Clinical trial design and sampling
This bioequivalence study was performed as randomized, single-dose, open-label, crossover, and two-way studies (with a washout period of 7 days). Prior to the clinical trial, subjects had a heparin-locked (150 unit/mL) JELCO 22G angio-catheter (Smiths Medical, Minneapolis, […]

PEPT1 = tested on: PEPT1; design: method as in PMID 9950279; settings: Caco-2; cited from earlier work
[1] = format: in vitro ADME; settings: human
Description: Supplementary Information S3
Determination of cefaclor plasma concentrations
Concentrations of unchanged cefaclor in plasma were determined by applying high performance liquid chromatography coupled with an ultraviolet (HPLC-UV), which has been established and validated in previous studies. The LC10 ADvp system (Shimadzu Inc., Kyoto, Japan) was used as an analysis device. Briefly describing the analysis method, plasma samples were pretreated through liquid-liquid extraction using 6% (v/v) trichloroacetic acid and then selectively separated on a Symmetry C18 column (5 μm, 4.6 × 150 mm; Waters Co., Milford, MA, USA) using water (mobile phase A) and methanol (mobile phase B) as mobile phases.
The composition ratio of mobile phases A and B was isocratically eluted at 88:12 (v/v), and the quantification of cefaclor was performed at a wavelength of 265 nm. Cephradine, which has a similar structure to cefaclor, was used as an internal standard (IS), and the retention times in the column for cefaclor and IS were 15 min and 23 min, respectively. The lower limit of quantification was 0.1 μg/mL, and the linear calibration curve was secured with a coefficient of determination of 0.99 or higher up to the concentration range of 10 μg/mL. The […]
calibration curve. […]

| SMILES | substrate interaction with PEPT1 (PEPT1) | other results |
| --- | --- | --- |
| N[C@@H](C(=O)N[C@@H]1C(=O)N2C(C(=O)O)=C(Cl)CS[C@H]12)c1ccccc1 [cefaclor] | interaction substrate with PEPT1 | AUC (clinical; AUCall): 7590 ± 1520 ng·h/mL; AUC(0-inf) (clinical; AUCinf): 7740 ± 1530 ng·h/mL; Cmax (clinical; Cmax): 6510 ± 1900 ng/mL; MRT (clinical; MRT (mean residence time)): 75.6 ± 11.4 min; half-life (clinical; T1/2 (elimination half-life)): 36 ± 3.6 min; Tmax (clinical; Tmax): 49.2 ± 21 min |
| CC1=C(C(=O)O)N2C(=O)[C@@H](NC(=O)[C@H](N)c3ccc(O)cc3)[C@H]2SC1 [cefadroxil] | may have substrate interactions with PEPT1 |  |
| Cn1nnnc1SCC1=C(C(=O)O)N2C(=O)[C@@H](NC(=O)[C@H](O)c3ccccc3)[C@H]2SC1 [cefamandole] | may have substrate interactions with PEPT1 |  |
| C=CC1=C(C(=O)O)N2C(=O)[C@@H](NC(=O)/C(=N\OCC(=O)O)c3csc(N)n3)[C@H]2SC1 [cefixime] | may have substrate interactions with PEPT1 |  |
| CO/N=C(\C(=O)N[C@@H]1C(=O)N2C(C(=O)O)=C(COC(N)=O)CS[C@H]12)c1ccco1 [cefuroxime] | may have substrate interactions with PEPT1 |  |
| CC1=C(C(=O)O)N2C(=O)[C@@H](NC(=O)[C@H](N)c3ccccc3)[C@H]2SC1 [cephalexin] | may have substrate interactions with PEPT1 |  |
| CC(=O)OCC1=C(C(=O)O)N2C(=O)[C@@H](NC(=O)Cc3cccs3)[C@H]2SC1 [cephalotin] | may have substrate interactions with PEPT1 |  |
| CC1=C(C(=O)O)N2C(=O)[C@@H](NC(=O)[C@H](N)C3=CCC=CC3)[C@H]2SC1 [cephradine] | may have substrate interactions with PEPT1 | stabilities in plasma samples [1]: 85-115% |
